Measurements taken from PubChem BioAssay (NCI).
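1) Cells in 96-well plates. 2) Compound, 48 h, 5 concentrations. 3) Linear interpolation between surrounding doses. 4) Unreached endpoint = highest concentration. TGI is the concentration that stops growth completely.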

How the values were obtained:
Test in all cases: inhibition of tumour cell growth, NCI panel, 48 h
786-0 renal = test system: 786-0 renal
A498 renal = test system: A498 renal
A549 NSCLC = test system: A549 NSCLC
ACHN renal = test system: ACHN renal
BT-549 breast = test system: BT-549 breast
CAKI-1 renal = test system: CAKI-1 renal
CCRF-CEM leukemia = test system: CCRF-CEM leukemia
COLO 205 colon = test system: COLO 205 colon
DU-145 prostate = test system: DU-145 prostate
EKVX NSCLC = test system: EKVX NSCLC
HCC-2998 colon = test system: HCC-2998 colon
HCT-116 colon = test system: HCT-116 colon
HCT-15 colon = test system: HCT-15 colon
HL-60(TB) leukemia = test system: HL-60(TB) leukemia
HOP-62 NSCLC = test system: HOP-62 NSCLC
HOP-92 NSCLC = test system: HOP-92 NSCLC
IGROV1 ovarian = test system: IGROV1 ovarian
K-562 leukemia = test system: K-562 leukemia
KM12 colon = test system: KM12 colon
LOX IMVI melanoma = test system: LOX IMVI melanoma
M14 melanoma = test system: M14 melanoma
MALME-3M melanoma = test system: MALME-3M melanoma
MDA-MB-231 breast = test system: MDA-MB-231 breast
MDA-MB-435 = test system: MDA-MB-435
MDA-N = test system: MDA-N
MOLT-4 leukemia = test system: MOLT-4 leukemia
NCI-H226 lung = test system: NCI-H226 lung
NCI-H23 lung = test system: NCI-H23 lung
NCI-H460 lung = test system: NCI-H460 lung
NCI-H522 lung = test system: NCI-H522 lung
NCI/ADR-RES ovarian = test system: NCI/ADR-RES ovarian
OVCAR-3 ovarian = test system: OVCAR-3 ovarian
OVCAR-5 ovarian = test system: OVCAR-5 ovarian
OVCAR-8 ovarian = test system: OVCAR-8 ovarian
PC-3 prostate = test system: PC-3 prostate
RPMI-8226 leukemia = test system: RPMI-8226 leukemia
RXF 393 renal = test system: RXF 393 renal
SF-268 CNS = test system: SF-268 CNS
SF-295 CNS = test system: SF-295 CNS
SF-539 CNS = test system: SF-539 CNS
SK-MEL-28 melanoma = test system: SK-MEL-28 melanoma
SK-MEL-5 melanoma = test system: SK-MEL-5 melanoma
SK-OV-3 ovarian = test system: SK-OV-3 ovarian
SN12C renal = test system: SN12C renal
SNB-19 CNS = test system: SNB-19 CNS
SNB-75 CNS = test system: SNB-75 CNS
SR leukemia = test system: SR leukemia
SW-620 colon = test system: SW-620 colon
T-47D breast = test system: T-47D breast
TK-10 renal = test system: TK-10 renal
U251 CNS = test system: U251 CNS
UACC-257 melanoma = test system: UACC-257 melanoma
UO-31 renal = test system: UO-31 renal
HT29 colon = test system: HT29 colon
MCF7 breast = test system: MCF7 breast
SK-MEL-2 melanoma = test system: SK-MEL-2 melanoma
UACC-62 melanoma = test system: UACC-62 melanoma
HS 578T breast = test system: HS 578T breast

In the case of `O=C(O)c1nc2ccccc2nc1Nc1ccc(Cl)c(Cl)c1`, the TGI (786-0 renal) is reported as 63.9 µM, the TGI (A498 renal) is reported as 41.6 µM and the TGI (A549 NSCLC) is reported as greater than 100 µM. The TGI (ACHN renal) was greater than 100 µM, the TGI (BT-549 breast) was 61.4 µM and the TGI (CAKI-1 renal) was 77.9 µM. The TGI (CCRF-CEM leukemia) was greater than 100 µM, the TGI (COLO 205 colon) was 82.6 µM and the TGI (DU-145 prostate) was greater than 100 µM. It also gave a TGI (EKVX NSCLC) greater than 100 µM, a TGI (HCC-2998 colon) of 73.5 µM and a TGI (HCT-116 colon) of 76.7 µM. For the same compound, the TGI (HCT-15 colon) was 36.1 µM, the TGI (HL-60(TB) leukemia) was greater than 100 µM and the TGI (HOP-62 NSCLC) was 58 µM. For the same compound, the TGI (HOP-92 NSCLC) was 59 µM, the TGI (IGROV1 ovarian) was greater than 100 µM and the TGI (K-562 leukemia) was greater than 100 µM. It also gave a TGI (KM12 colon) of 54 µM, a TGI (LOX IMVI melanoma) greater than 100 µM and a TGI (M14 melanoma) of 82 µM. It also gave a TGI (MALME-3M melanoma) greater than 100 µM, a TGI (MDA-MB-231 breast) of 90 µM and a TGI (MDA-MB-435) greater than 100 µM. For the same compound, the TGI (MDA-N) was greater than 100 µM, the TGI (MOLT-4 leukemia) was greater than 100 µM and the TGI (NCI-H226 lung) was greater than 100 µM. The TGI (NCI-H23 lung) was 50.1 µM, the TGI (NCI-H460 lung) was 82.5 µM and the TGI (NCI-H522 lung) was 60.1 µM. The TGI (NCI/ADR-RES ovarian) was greater than 100 µM, the TGI (OVCAR-3 ovarian) was 37.2 µM and the TGI (OVCAR-5 ovarian) was greater than 100 µM. For the same compound, the TGI (OVCAR-8 ovarian) was greater than 100 µM, the TGI (PC-3 prostate) was greater than 100 µM and the TGI (RPMI-8226 leukemia) was greater than 100 µM. It also gave a TGI (RXF 393 renal) of 69.3 µM, a TGI (SF-268 CNS) greater than 100 µM and a TGI (SF-295 CNS) of 69.8 µM. The TGI (SF-539 CNS) was 43.7 µM, the TGI (SK-MEL-28 melanoma) was 75 µM and the TGI (SK-MEL-5 melanoma) was 47 µM. The TGI (SK-OV-3 ovarian) was 88.1 µM, the TGI (SN12C renal) was greater than 100 µM and the TGI (SNB-19 CNS) was greater than 100 µM. It also gave a TGI (SNB-75 CNS) greater than 100 µM, a TGI (SR leukemia) greater than 100 µM and a TGI (SW-620 colon) greater than 100 µM. It also gave a TGI (T-47D breast) of 72.1 µM, a TGI (TK-10 renal) greater than 100 µM and a TGI (U251 CNS) greater than 100 µM. The TGI (UACC-257 melanoma) was greater than 100 µM and the TGI (UO-31 renal) was 33.6 µM.

`COc1ccc(C2=Nc3c(nc(OC)[nH]c3=O)NC(c3ccccc3)C2)cc1` (stereo unspecified) gave a TGI (786-0 renal) of 93.6 µM, a TGI (A498 renal) greater than 100 µM and a TGI (A549 NSCLC) greater than 100 µM. For the same compound, the TGI (ACHN renal) was 83.5 µM, the TGI (BT-549 breast) was greater than 100 µM and the TGI (CAKI-1 renal) was greater than 100 µM. The TGI (CCRF-CEM leukemia) was greater than 100 µM, the TGI (COLO 205 colon) was 50.3 µM and the TGI (DU-145 prostate) was greater than 100 µM. It also gave a TGI (EKVX NSCLC) greater than 100 µM, a TGI (HCT-116 colon) greater than 100 µM and a TGI (HL-60(TB) leukemia) of 56.9 µM. The TGI (HOP-62 NSCLC) was greater than 100 µM, the TGI (HOP-92 NSCLC) was greater than 100 µM and the TGI (HT29 colon) was greater than 100 µM. The TGI (IGROV1 ovarian) was greater than 100 µM, the TGI (K-562 leukemia) was 73.1 µM and the TGI (KM12 colon) was 36.3 µM. For the same compound, the TGI (LOX IMVI melanoma) was 70.3 µM, the TGI (M14 melanoma) was greater than 100 µM and the TGI (MALME-3M melanoma) was greater than 100 µM. For the same compound, the TGI (MCF7 breast) was 68.2 µM, the TGI (MDA-MB-231 breast) was 53.4 µM and the TGI (MDA-MB-435) was greater than 100 µM. It also gave a TGI (MDA-N) of 64.5 µM, a TGI (MOLT-4 leukemia) greater than 100 µM and a TGI (NCI-H226 lung) greater than 100 µM. It also gave a TGI (NCI-H23 lung) greater than 100 µM, a TGI (NCI-H522 lung) greater than 100 µM and a TGI (NCI/ADR-RES ovarian) greater than 100 µM. It also gave a TGI (OVCAR-3 ovarian) greater than 100 µM, a TGI (OVCAR-5 ovarian) greater than 100 µM and a TGI (OVCAR-8 ovarian) of 54.4 µM. It also gave a TGI (PC-3 prostate) greater than 100 µM, a TGI (RPMI-8226 leukemia) of 91.5 µM and a TGI (RXF 393 renal) of 63.9 µM. For the same compound, the TGI (SF-295 CNS) was greater than 100 µM, the TGI (SF-539 CNS) was 94.1 µM and the TGI (SK-MEL-2 melanoma) was greater than 100 µM. It also gave a TGI (SK-MEL-28 melanoma) of 42.7 µM, a TGI (SK-MEL-5 melanoma) of 33.7 µM and a TGI (SN12C renal) of 62.6 µM. The TGI (SNB-19 CNS) was greater than 100 µM, the TGI (SNB-75 CNS) was 58.5 µM and the TGI (SR leukemia) was greater than 100 µM. For the same compound, the TGI (SW-620 colon) was 72.4 µM, the TGI (U251 CNS) was 65.6 µM and the TGI (UACC-257 melanoma) was greater than 100 µM. For the same compound, the TGI (UACC-62 melanoma) was greater than 100 µM and the TGI (UO-31 renal) was greater than 100 µM.

With `COC(=O)C1(NC(=O)C(Cc2ccccc2)N(C(=O)OC(C)(C)C)C(=O)OC(C)(C)C)CCCC1` (stereo unspecified) the TGI (786-0 renal) was greater than 10 µM, the TGI (A498 renal) was greater than 100 µM and the TGI (A549 NSCLC) was greater than 100 µM. The TGI (ACHN renal) was greater than 10 µM, the TGI (CCRF-CEM leukemia) was greater than 100 µM and the TGI (COLO 205 colon) was greater than 100 µM. For the same compound, the TGI (DU-145 prostate) was greater than 100 µM, the TGI (EKVX NSCLC) was greater than 100 µM and the TGI (HCC-2998 colon) was greater than 100 µM. The TGI (HCT-116 colon) was greater than 100 µM, the TGI (HCT-15 colon) was greater than 100 µM and the TGI (HL-60(TB) leukemia) was 62.1 µM. It also gave a TGI (HOP-62 NSCLC) greater than 100 µM, a TGI (HOP-92 NSCLC) greater than 100 µM and a TGI (HS 578T breast) greater than 100 µM. For the same compound, the TGI (IGROV1 ovarian) was greater than 100 µM, the TGI (K-562 leukemia) was greater than 100 µM and the TGI (LOX IMVI melanoma) was greater than 100 µM. For the same compound, the TGI (M14 melanoma) was greater than 100 µM, the TGI (MCF7 breast) was 64.6 µM and the TGI (MDA-MB-231 breast) was greater than 100 µM. For the same compound, the TGI (MDA-MB-435) was greater than 100 µM, the TGI (MDA-N) was greater than 100 µM and the TGI (MOLT-4 leukemia) was greater than 100 µM. It also gave a TGI (NCI-H226 lung) greater than 100 µM, a TGI (NCI-H23 lung) greater than 100 µM and a TGI (NCI-H460 lung) greater than 100 µM. The TGI (NCI/ADR-RES ovarian) was greater than 100 µM, the TGI (OVCAR-5 ovarian) was greater than 100 µM and the TGI (OVCAR-8 ovarian) was greater than 100 µM. For the same compound, the TGI (PC-3 prostate) was greater than 100 µM, the TGI (RPMI-8226 leukemia) was 47.1 µM and the TGI (SF-268 CNS) was greater than 100 µM. The TGI (SF-539 CNS) was greater than 100 µM, the TGI (SK-MEL-2 melanoma) was greater than 100 µM and the TGI (SK-MEL-28 melanoma) was greater than 100 µM. The TGI (SK-MEL-5 melanoma) was greater than 100 µM, the TGI (SK-OV-3 ovarian) was greater than 100 µM and the TGI (SN12C renal) was greater than 100 µM. The TGI (SNB-19 CNS) was greater than 100 µM, the TGI (SNB-75 CNS) was greater than 100 µM and the TGI (SR leukemia) was greater than 10 µM. The TGI (SW-620 colon) was greater than 100 µM, the TGI (T-47D breast) was greater than 100 µM and the TGI (TK-10 renal) was greater than 100 µM. It also gave a TGI (U251 CNS) greater than 100 µM, a TGI (UACC-62 melanoma) greater than 100 µM and a TGI (UO-31 renal) greater than 100 µM.
